The species entered for data set [1] is Danio rerio. Briefly: Toxicity in Danio rerio (zebrafish) embryo assessed as developmental delays at 10 uM after 24 to 72 hr by light microscopic analysis relative to control. In kind it is organism-based. The conditions noted are these: in vivo.
For data set [2], the species on record is Danio rerio. Put plainly: Toxicity in Danio rerio (zebrafish) embryo assessed as mortality at 10 uM after 24 to 72 hr by light microscopic analysis relative to control. The conditions noted are these: in vivo. It is filed as organism-based.
Another data set deals with L6 (Rattus norvegicus). Briefly: Glucose uptake in Rattus norvegicus (rat) L6 cells at 50 uM.
The species entered for data set [3] is Danio rerio. Briefly: Toxicity in Danio rerio (zebrafish) embryo assessed as deformations at 10 uM after 24 to 72 hr by light microscopic analysis relative to control. The conditions noted are these: in vivo. It is filed as organism-based.
For data set [4], the target named is T1, Tyrosine-protein phosphatase non-receptor type 1 (Homo sapiens) (UniProt P18031).
T1 sequence (whole entry): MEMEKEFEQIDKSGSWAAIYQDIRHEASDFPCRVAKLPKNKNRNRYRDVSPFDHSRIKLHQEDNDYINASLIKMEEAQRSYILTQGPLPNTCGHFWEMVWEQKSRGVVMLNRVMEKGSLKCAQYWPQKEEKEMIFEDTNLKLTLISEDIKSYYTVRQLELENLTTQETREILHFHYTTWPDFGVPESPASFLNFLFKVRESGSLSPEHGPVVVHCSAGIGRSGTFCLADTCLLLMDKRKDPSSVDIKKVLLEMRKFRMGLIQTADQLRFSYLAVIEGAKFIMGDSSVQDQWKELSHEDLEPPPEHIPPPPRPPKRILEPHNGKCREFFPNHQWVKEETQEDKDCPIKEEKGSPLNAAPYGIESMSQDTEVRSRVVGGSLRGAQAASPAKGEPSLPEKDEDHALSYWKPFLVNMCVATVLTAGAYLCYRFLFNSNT
Put plainly: Inhibition of PTP1B (unknown origin) at 10 uM.

Data set [5] deals with Danio rerio. Briefly: Toxicity in Danio rerio (zebrafish) embryo assessed as oedema at 10 uM after 24 to 72 hr by light microscopic analysis relative to control. It is filed as organism-based. The conditions noted are these: in vivo.

The inhibition is the percentage by which the read-out fell short of the control. High values mean strong suppression, low ones little suppression. In the case of `N#CC(C#N)=Cc1ccc(OCCSc2nnc(-c3ccccc3)o2)cc1`, the Activity result in the data set filed under Danio rerio [1], in the data set filed under Danio rerio [2], in the data set listed under Danio rerio [3] and in the data set with Danio rerio [5] was “Non-toxic” in each case. Also, in the data set with L6 (Rattus norvegicus), the glucose uptake was 25.3%. In data set [4], the inhibition was 54.6%.

As for `COc1ccccc1-c1nnc(SCCOc2ccc(C=C(C#N)C#N)cc2)o1`, the Activity result in the data set listed under Danio rerio [1], in the data set filed under Danio rerio [2], in the data set filed under Danio rerio [3] and with Danio rerio [5] was “Non-toxic” in each case. In addition, in the data set on L6 (Rattus norvegicus), the glucose uptake was 38.5%. Besides, the inhibition in data set [4] was found to be 50%.

The molecule `N#CC(C#N)=Cc1ccc(OCCSc2nnc(-c3cccc([N+](=O)[O-])c3)o2)cc1` came in with a glucose uptake in the data set with L6 (Rattus norvegicus) of 11.8%. The molecule also returned an inhibition in data set [4] of 41.4%.

The molecule `Cc1ccc(-c2nnc(SCCOc3ccc(C=C(C#N)C#N)cc3)o2)cc1` yielded a glucose uptake with L6 (Rattus norvegicus) of 18.8%. Besides, in data set [4], the inhibition worked out at 44.5%.

In the data set on L6 (Rattus norvegicus), `COc1cccc(-c2nnc(SCCOc3ccc(C=C(C#N)C#N)cc3)o2)c1` showed a glucose uptake of 13.5%. Besides, in data set [4], the inhibition was 39%.

Regarding `N#CC(C#N)=Cc1ccc(OCCSc2nnc(-c3ccc(Cl)cc3)o2)cc1`, the glucose uptake in the data set with L6 (Rattus norvegicus) is 24.2%. In data set [4], this molecule gave an inhibition of 34.3%.

With `N#CC(C#N)=Cc1ccc(OCCSc2nnc(-c3ccccc3Cl)o2)cc1`, the glucose uptake with L6 (Rattus norvegicus) came out at 26.6%. Also, in data set [4], the inhibition amounted to 23.4%.

Regarding `N#CC(C#N)=Cc1ccc(OCCSc2nnc(-c3ccc(F)cc3)o2)cc1`, the glucose uptake with L6 (Rattus norvegicus) was 13.3%. The molecule also showed an inhibition in data set [4] of 30.4%.

The record behind these values is ChEMBL document CHEMBL3045458, “Design, synthesis and biological evaluation of novel arylidine-malononitrile derivatives as non-carboxylic inhibitors of protein tyrosine phosphatase 1B” (Med Chem Res, 2013).
